Test results from article PMC4666608, “Metabolic Profiling of Chicken Embryos Exposed to Perfluorooctanoic Acid (PFOA) and Agonists to Peroxisome Proliferator-Activated Receptors” (PLoS ONE, 2015).
Marks after values point to notes of the source that are not given here.

Test system: chicken embryos
Test: Metabolic profiling of blood plasma (GC-MS, LC-MS, OPLS-DA)
Assay type: in vivo, Gallus gallus domesticus
Experimental: Controls were injected with 20 μL vehicle only (DMSO).
Plasma was collected and stored at -70°C.
Metabolites in allantoic fluid and blood plasma were analyzed using gas chromatography-mass spectrometry (GC-MS) and liquid chromatography-mass spectrometry (LC-MS) as described in S1 Methods. Prior to GC-MS and LC-MS analysis, allantoic fluid (100 μL) and blood plasma (50 μL) were extracted. To each sample, 900 μL (allantoic fluid) or 450 μL (blood plasma) of extraction buffer (90/10 v/v methanol:water) including all internal standards were added. Standards for GC-MS were proline, succinic acid, glutamic acid, salicylic acid, alpha-ketoglutarate, putrescine, myristic acid, hexadecanoic acid, cholesterol, and sucrose. Standards for LC-MS were Val-Tyr-Val, Leu-enkephalin, sulfadimethoxine and reserpine. Samples were homogenized by shaking in a bead mill at a frequency of 30 Hz for 3 minutes and proteins were precipitated at +4°C on ice. The samples were centrifuged at +4°C, 14000 rpm, for 10 min. Then, 200 μL supernatant was transferred to a GC microvial and 200 μL was transferred to an LC microvial, and solvents were evaporated. Samples from the four replicate experiments were analyzed using in chronological order and within each replicate experiment the run order of the individual samples was randomized.
Multivariate statistical analyses of metabolite profiles were performed using the software package SIMCA-P version 13.0 (Umetrics, Umeå, Sweden). Data was centered and scaled to variance 1 (UV scaling) prior to modelling. To reduce unintended systematic variation caused by sample processing and instrument drift, GC-MS and LC-MS metabolite amounts (expressed as the area under the chromatographic peak) were normalized by Orthogonal Partial Least Squares analysis (O2PLS) prior to multivariate data analysis. O2PLS finds common (predictive) and unique (orthogonal) variation in two data matrices. If applied to find the common variation between the data matrix containing the measured metabolite concentrations and a matrix containing only the internal standards, the only common (predictive) variation expected is due to the unintended systematic variation. By deleting the contribution of the predictive latent variables, that variation can be removed from the data. Models obtained after this normalization contain in general less latent variables, and this simplification helps when deciding on the number of latent variables to be used. Following normalization, GC-MS and LC-MS data were analyzed together. Initially, a global Principal Component Analysis (PCA) was performed to get an overview of groups and trends and to identify outliers. Projections to latent structures by means of Orthogonal Partial Least Squares Discriminant Analysis (OPLS-DA) was used to model the relationship between the X-matrix (metabolite concentrations) and the Y matrix (class, i.e. exposure group or sex), and to find x-variables that were related to class belonging. OPLS-DA is a supervised prediction and regression method that rotates the projection plane to find the maximum covariance between the data and the class assignment. All groups were first analyzed together in a 5-class OPLS-DA and then each exposure group was analyzed against the control group in a 2-class OPLS-DA. Sex differences were analyzed both using the whole data set and in each group separately using 2-class OPLS-DA, with females and males as the two classes. Only variables with 80% or more nonzero values were included in the statistical models. […] The validity of each model was also checked using CV-ANOVA (ANOVA of the cross-validated residuals). A significance level of p < 0.05 was used. For each model, R ^2 X, R ^2 Y and Q ^2 values were calculated, where R ^2 X is a measure of the fraction of x variation modeled in the extracted latent variables, R ^2 Y is a measure of the fraction of y variation modeled and Q ^2 is an estimate of the predictive ability of the model and is calculated by cross-validation. […]

CC(C)(Sc1ccc(CCN(CCCCC2CCCCC2)C(=O)NC2CCCCC2)cc1)C(=O)O [GW7647, reference compound]
Mean concentration relative to control, feature Win006_C03 (GC): 1.3*** | Mean concentration relative to control, feature Win011_C02 (Isoleucine) (GC): 1.2** | Mean concentration relative to control, feature Win027_C13 (GC): 0.9 | Mean concentration relative to control, feature Win031_C03 (Citric acid) (GC): 0.8** | Mean concentration relative to control, feature Win034_C08 (Tyrosine) (GC): 1.2*** | Mean concentration relative to control, feature Win034_C09 (Tyrosine) (GC): 1.3*** | Mean concentration relative to control, feature Win039_C07 (GC): 1.8*** | Mean concentration relative to control, feature Win043_C02 (Cystathionine) (GC): 1.6*** | Mean concentration relative to control, feature Win061_C01 (GC): 1.4* | Mean concentration relative to control, feature Win066_C03 (GC): 1.3** | Mean concentration relative to control, feature Win088_C02 (GC): 1.2** | Mean concentration relative to control, feature 118.0284@2.480333 (C4H6O4) (LC): 0.9 | Mean concentration relative to control, feature 122.0486@0.675613 (LC): 0.7** | Mean concentration relative to control, feature 126.0428@1.2278157 (Thymine) (LC): 1.2*** | Mean concentration relative to control, feature 146.0362@0.7772238 (LC): 1.3** | Mean concentration relative to control, feature 159.0686@1.1608156 (LC): 1.6** | Mean concentration relative to control, feature 164.0449@0.7694838 (LC): 1.2** | Mean concentration relative to control, feature 202.1024@5.0303197 (C8H14N2O4) (LC): 1.4** | Mean concentration relative to control, feature 203.1162@0.5130696 (LC): 0.8*** | Mean concentration relative to control, feature 213.2458@7.4887733 (LC): 1 | Mean concentration relative to control, feature 215.047@1.6260729 (C5H14NO6P) (LC): 0.8*** | Mean concentration relative to control, feature 226.0721@1.9460537 (LC): 1.1** | Mean concentration relative to control, feature 231.0174@1.6241412 (LC): 0.7** | Mean concentration relative to control, feature 233.1265@2.535991 (LC): 1.4** | Mean concentration relative to control, feature 250.1317@2.1334834 (LC): 1.7** | Mean concentration relative to control, feature 260.0508@0.69984084 (LC): 0.8 | Mean concentration relative to control, feature 276.0173@1.6283482 (LC): 0.7** | Mean concentration relative to control, feature 278.0939@1.3354088 (LC): 0.8*** | Mean concentration relative to control, feature 293.0903@1.5739433 (LC): 1.2*** | Mean concentration relative to control, feature 307.2147@7.5065937 (C18H29NO3) (LC): 0.9 | Mean concentration relative to control, feature 310.178@7.5343466 (LC): 1 | Mean concentration relative to control, feature 339.3861@9.528681 (LC): 1.1 | Mean concentration relative to control, feature 342.2883@7.526812 (LC): 1.1 | Mean concentration relative to control, feature 348.0675@1.5761927 (LC): 1.1** | Mean concentration relative to control, feature 355.9454@0.68034226 (LC): 0.9** | Mean concentration relative to control, feature 362.1467@0.8461036 (LC): 1.2*** | Mean concentration relative to control, feature 366.1431@1.4228548 (LC): 1.1 | Mean concentration relative to control, feature 373.296@9.044806 (LC): 0.8*** | Mean concentration relative to control, feature 375.3108@8.995564 (LC): 0.8** | Mean concentration relative to control, feature 389.2686@9.046645 (LC): 0.9** | Mean concentration relative to control, feature 407.0999@1.585909 (LC): 1 | Mean concentration relative to control, feature 412.135@2.4779084 (C17H24N4O6S) (LC): 0.9 | Mean concentration relative to control, feature 444.3607@10.33052 (LC): 0.9 | Mean concentration relative to control, feature 471.9819@0.685074 (LC): 0.8* | Mean concentration relative to control, feature 489.1508@8.562614 (LC): 0.7** | Mean concentration relative to control, feature 509.1184@2.4798179 (LC): 1 | Mean concentration relative to control, feature 525.2855@8.361063 (LC): 1.4** | Mean concentration relative to control, feature 545.2492@8.463657 (LC): 1.2* | Mean concentration relative to control, feature 558.4095@9.459733 (LC): 1.3 | Mean concentration relative to control, feature 565.1902@0.7699907 (LC): 1.2*** | Mean concentration relative to control, feature 577.2747@9.25652 (LC): 1.2** | Mean concentration relative to control, feature 581.1643@0.77029324 (LC): 1.3*** | Mean concentration relative to control, feature 634.2403@1.9467853 (LC): 1.5* | Mean concentration relative to control, feature 644.1614@0.7647065 (LC): 1.2** | Mean concentration relative to control, feature 659.5483@11.4915495 (LC): 0.7*** | Mean concentration relative to control, feature 698.2598@1.3599721 (LC): 1.1 | Mean concentration relative to control, feature 700.5514@10.765638 (LC): 1.4* | Mean concentration relative to control, feature 755.5465@10.73882 (LC): 0.9 | Mean concentration relative to control, feature 827.5078@8.831237 (LC): 1.5* | Mean concentration relative to control, feature 875.4661@10.5661745 (LC): 1.3*** | Mean concentration relative to control, feature 1262.4865@1.947075 (LC): 1.1** | Mean concentration relative to control, feature 1316.4163@1.9465046 (LC): 1.1** | Mean concentration relative to control, feature 1591.051@5.0189176 (LC): 0.8** | Mean concentration relative to control, feature 1591.388@5.0202384 (LC): 0.8*** | Mean concentration relative to control, feature 1591.7203@5.018071 (LC): 0.8**
